Reference: patent publication US20230117205A1, “B7-H4 ANTIBODY-DRUG CONJUGATES FOR THE TREATMENT OF CANCER” (SEAGEN INC., priority 2021, published 2023)

Key:
[1] = system: MDA-MB-468 xenograft tumors; assay: RNAseq of treated MDA-MB-468 xenograft tumors; type: in vivo, NSG mice; conditions: single 3 mg/kg dose; compared to vehicle control
Procedure: Specifically, female NSG mice were implanted with 1×10^6 MDA-MB-468 cells in 25% Matrigel H C subcutaneously. Once tumor volumes reached ˜250-300 mm^3, mice were randomized into treatment groups of 6 mice each and treated with a single 3 mg/kg dose of ADC or mAb, or vehicle control (20 mM Histidine buffer, pH 6.0) injected intraperitoneally (i.p.). Stock concentrations of ADC were diluted to desired concentration with 20 mM Histidine buffer, pH 6.0 or and stock concentration of mAb were diluted to desired concentration with 0.01% Tween20 in PBS. Twenty-four hours prior to dosing, each animal was treated with 10 mg/kg hIVIG. One week following treatment, tumors were harvested, cut in half, and processed for RNAseq (frozen at −80° C.) or formalin-fixed and paraffin-embedded for immunohistochemical (IHC) analysis.
For RNAseq, RNA was extracted from tumors and library preparation for […] sequencing was performed using PolyA selection. RNA was sequenced using the Illumina HiSeq platform 2×150 bp configuration. […] Adaptors were trimmed using cutadapt version 1.16, reads were aligned to a composite (GRCh38(h38)/GRCm38(mm10)) genome using STAR version 2.5.2. Transcripts and genes were quantitated via RSEM version 1.2.31. Quantitative and statistical differences were determined between groups of samples using DESeq2 version 1.28.1. […]

[2] = system: MDA-MB-468 xenograft model; assay: MDA-MB-468 xenograft, Study MDAMB468-6; type: in vivo, NSG mice; conditions: 3 mg/kg, three weekly doses, i.p.
Procedure: Tumor volume was measured twice weekly until study day 80.
Female NSG mice were implanted with 1×10^6 MDA-MB-468 cells in 25% Matrigel H C (Corning #354248) subcutaneously. Once tumor volumes reached 100 mm^3, mice were randomized into treatment groups of 5 mice each and dosed with 0.3, 1, or 3 mg/kg every seven days for three total doses (q7dx3). Twenty-four hours prior to receiving each ADC dose, each animal was treated with 10 mg/kg hIVIG (Grifolds). Tumor volumes were measured twice per week, animals were euthanized when tumor volume reached 700-1000 mm^3. Stock concentrations of ADC were diluted to desired concentration (with 0.01% Tween20 in PBS) and injected i.p. into each treatment group

[3] = system: WIL2S and RAJI cells transduced to express human B7-H4; assay: CDC, Sytox Green, 10% human serum; type: cell-based
Procedure: Antibodies have the ability to recruit complement proteins triggering complement-dependent cytotoxicity (CDC).
Using complement media (RPMI containing 10% human serum (Complement Technology, Inc. #NHS)), test antibodies and controls were titrated with a 3-fold dilution ranging from 50-0.02 μg/mL and 100 μL/well of the titrations were plated over the target cells. To measure total cell death, 2% Triton X (EMD Millipore Corp. #648463-50ML) was used as a positive control. Test plate was incubated for 2 hours at 37° C. in a humidity-controlled incubator and then Sytox Green fluorescence was read on an Envision plate reader.

HR+ BC PDX models = assay: HR+ breast cancer patient-derived xenograft models; type: in vivo, mice; conditions: for % TGI: 3 mg/kg q7dx3, vs untreated
Procedure: Specifically, Stock mice were bilaterally implanted with fragments from one of the Champions TumorGraft® models representing human HR^+ BC or ovarian cancer. After the tumors reached 1000-1500 mm^3, they were harvested, and the tumor fragments were implanted subcutaneously (s.c.) in the left flank of the female study mice. Each animal was implanted with a specific passage lot and documented. Tumor growth was monitored twice a week using digital calipers, and the tumor volume (TV) was calculated using the formula (0.52×[length×width^2]). When the TV reached approximately 150-300 mm^3, animals were matched by tumor size and assigned into control (untreated) or treatment groups (n=3 animals/group). Each animal in the treatment groups was dosed with 3 mg/kg of ADC every seven days for three total doses (q7dx3). […]
Inhibition of tumor growth was determined by calculating the percent TGI on the day at which animals in the control group were terminated (100%×[1−(final MTV−initial MTV of a treated group)/(final MTV−initial MTV of the control group)]). Treatment started on Day 0.

MX-1 xenograft model = assay: MX-1 xenograft, Study MX1-2; type: in vivo, SCID mice; conditions: 3 mg/kg, three weekly doses, i.p.
Procedure: Tumor volume was measured twice weekly until study day 84.
Female SCID mice were implanted with 5×10^5 MX1 tumor cells in 25% Matrigel H C (Corning #354248) subcutaneously. Once tumor volumes reached 100 mm^3, mice were randomized into treatment groups of 5 mice each and dosed with 3 mg/kg of ADC every seven days for three total doses (q7dx3). Tumor volumes were measured twice per week, and animals were euthanized when tumor volume reached 700-1000 mm^3. Stock concentrations of ADC were diluted to a desired concentration (with 0.01% Tween20 in PBS) and injected i.p. into each treatment group.

## SGN-B7H4V: ADC of fully human IgG1 anti-B7-H4 mAb conjugated to monomethyl auristatin E (MMAE) via a protease-cleavable valine-citrulline linker (vedotin)
[1]
  upregulation of human transcripts encoding cytokines (CXCL10 and CXCL1): 2-3 fold
[2]
  anti-tumor activity (tumor volume): transient regression of tumor volumes in all mice
[3]
  lysis (CDC): did not induce lysis
HR+ BC PDX models; HR+ BC, 3 mg/kg, 3 weekly doses
  PDX models with antitumor activity: ⅙
HR+ BC PDX models; HR+ BC_1, Day 38
  % TGI: 7%
HR+ BC PDX models; HR+ BC_2, Day 34
  % TGI: 79%
HR+ BC PDX models; HR+ BC_3, Day 16
  % TGI: 28%
HR+ BC PDX models; HR+ BC_4, Day 59
  % TGI: 12%
HR+ BC PDX models; HR+ BC_5, Day 59
  % TGI: 11%
HR+ BC PDX models; HR+ BC_6, Day 62
  % TGI: 16%
MX-1 xenograft model
  anti-tumor activity (tumor volume): regression of tumor volumes in all mice
  mice with sustained regression: 4 of the 5
